According to ChEMBL document CHEMBL1649420, “Identifying chelators for metalloprotein inhibitors using a fragment-based approach” (J Med Chem, 2011):

How the values were obtained:
Details in all cases: at 1 mM
[1] = target: T1, Tyrosinase (Agaricus bisporus) (UniProt O42713);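 note: inhibition measured at 10 min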
T1 sequence (whole entry): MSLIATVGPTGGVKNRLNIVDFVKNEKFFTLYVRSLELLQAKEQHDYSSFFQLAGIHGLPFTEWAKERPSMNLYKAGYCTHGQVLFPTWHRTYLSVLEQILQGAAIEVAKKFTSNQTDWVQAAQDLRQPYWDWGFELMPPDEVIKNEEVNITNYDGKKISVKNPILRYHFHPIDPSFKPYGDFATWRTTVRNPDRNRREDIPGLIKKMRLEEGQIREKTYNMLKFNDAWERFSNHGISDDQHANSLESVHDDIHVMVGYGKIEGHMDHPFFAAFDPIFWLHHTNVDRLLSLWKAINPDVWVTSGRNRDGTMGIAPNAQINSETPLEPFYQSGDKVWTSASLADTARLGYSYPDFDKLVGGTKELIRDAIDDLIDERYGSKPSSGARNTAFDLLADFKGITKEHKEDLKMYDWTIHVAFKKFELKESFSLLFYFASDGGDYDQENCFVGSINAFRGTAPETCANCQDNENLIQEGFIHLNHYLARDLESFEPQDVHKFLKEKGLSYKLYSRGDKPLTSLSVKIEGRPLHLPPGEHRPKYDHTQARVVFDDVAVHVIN

[2] = target: T2, Lethal factor (Bacillus anthracis) (UniProt P15917)
T2 sequence (whole entry): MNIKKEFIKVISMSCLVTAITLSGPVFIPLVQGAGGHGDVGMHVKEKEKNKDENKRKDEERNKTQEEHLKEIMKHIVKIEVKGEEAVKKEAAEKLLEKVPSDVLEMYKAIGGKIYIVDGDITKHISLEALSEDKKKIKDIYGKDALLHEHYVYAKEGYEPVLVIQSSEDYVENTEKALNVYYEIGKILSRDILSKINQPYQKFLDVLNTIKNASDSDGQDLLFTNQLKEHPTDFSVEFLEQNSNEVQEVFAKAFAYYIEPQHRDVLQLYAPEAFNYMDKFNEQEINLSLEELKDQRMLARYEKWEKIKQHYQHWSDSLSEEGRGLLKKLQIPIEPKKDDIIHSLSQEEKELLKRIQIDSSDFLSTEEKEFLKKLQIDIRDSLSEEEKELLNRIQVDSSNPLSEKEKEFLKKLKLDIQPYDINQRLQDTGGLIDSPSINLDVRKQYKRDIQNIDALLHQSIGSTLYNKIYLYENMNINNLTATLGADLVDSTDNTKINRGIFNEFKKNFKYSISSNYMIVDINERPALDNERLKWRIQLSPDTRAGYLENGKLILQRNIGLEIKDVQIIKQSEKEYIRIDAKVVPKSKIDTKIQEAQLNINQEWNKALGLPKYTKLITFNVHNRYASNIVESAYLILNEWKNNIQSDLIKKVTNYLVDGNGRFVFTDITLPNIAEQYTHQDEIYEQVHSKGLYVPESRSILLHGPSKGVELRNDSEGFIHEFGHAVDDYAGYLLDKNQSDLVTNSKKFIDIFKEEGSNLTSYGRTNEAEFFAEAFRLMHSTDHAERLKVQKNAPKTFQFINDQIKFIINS

[3] = target: T3, Interstitial collagenase (Homo sapiens) (UniProt P03956);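 note: recombinant human enzyme, with inhibition measured after 30 min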
T3 sequence (whole entry): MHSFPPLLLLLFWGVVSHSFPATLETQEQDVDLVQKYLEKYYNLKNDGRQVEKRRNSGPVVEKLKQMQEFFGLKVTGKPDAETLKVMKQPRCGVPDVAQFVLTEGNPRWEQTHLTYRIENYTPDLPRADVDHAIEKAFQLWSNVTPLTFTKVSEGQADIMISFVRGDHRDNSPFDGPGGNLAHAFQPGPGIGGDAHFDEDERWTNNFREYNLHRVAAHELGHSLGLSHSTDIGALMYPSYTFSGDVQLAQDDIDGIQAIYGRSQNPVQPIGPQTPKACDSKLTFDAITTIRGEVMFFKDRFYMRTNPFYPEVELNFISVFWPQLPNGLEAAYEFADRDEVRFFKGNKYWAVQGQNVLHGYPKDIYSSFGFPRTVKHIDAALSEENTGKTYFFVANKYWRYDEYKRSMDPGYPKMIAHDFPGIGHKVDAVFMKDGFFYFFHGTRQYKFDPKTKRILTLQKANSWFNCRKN

[4] = target: Neutrophil collagenase (Homo sapiens) (UniProt P22894);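 note: recombinant human MMP8 enzyme, percent inhibition read after 30 min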
[5] = target: Matrix metalloproteinase-9 (Homo sapiens) (UniProt P14780);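 note: recombinant human MMP9, activity read after 30 min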
[6] = target: T4, Nitric oxide synthase, inducible (Mus musculus) (UniProt P29477);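 note: recombinant enzyme, activity read out colorimetrically after 40 min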
T4 sequence (whole entry): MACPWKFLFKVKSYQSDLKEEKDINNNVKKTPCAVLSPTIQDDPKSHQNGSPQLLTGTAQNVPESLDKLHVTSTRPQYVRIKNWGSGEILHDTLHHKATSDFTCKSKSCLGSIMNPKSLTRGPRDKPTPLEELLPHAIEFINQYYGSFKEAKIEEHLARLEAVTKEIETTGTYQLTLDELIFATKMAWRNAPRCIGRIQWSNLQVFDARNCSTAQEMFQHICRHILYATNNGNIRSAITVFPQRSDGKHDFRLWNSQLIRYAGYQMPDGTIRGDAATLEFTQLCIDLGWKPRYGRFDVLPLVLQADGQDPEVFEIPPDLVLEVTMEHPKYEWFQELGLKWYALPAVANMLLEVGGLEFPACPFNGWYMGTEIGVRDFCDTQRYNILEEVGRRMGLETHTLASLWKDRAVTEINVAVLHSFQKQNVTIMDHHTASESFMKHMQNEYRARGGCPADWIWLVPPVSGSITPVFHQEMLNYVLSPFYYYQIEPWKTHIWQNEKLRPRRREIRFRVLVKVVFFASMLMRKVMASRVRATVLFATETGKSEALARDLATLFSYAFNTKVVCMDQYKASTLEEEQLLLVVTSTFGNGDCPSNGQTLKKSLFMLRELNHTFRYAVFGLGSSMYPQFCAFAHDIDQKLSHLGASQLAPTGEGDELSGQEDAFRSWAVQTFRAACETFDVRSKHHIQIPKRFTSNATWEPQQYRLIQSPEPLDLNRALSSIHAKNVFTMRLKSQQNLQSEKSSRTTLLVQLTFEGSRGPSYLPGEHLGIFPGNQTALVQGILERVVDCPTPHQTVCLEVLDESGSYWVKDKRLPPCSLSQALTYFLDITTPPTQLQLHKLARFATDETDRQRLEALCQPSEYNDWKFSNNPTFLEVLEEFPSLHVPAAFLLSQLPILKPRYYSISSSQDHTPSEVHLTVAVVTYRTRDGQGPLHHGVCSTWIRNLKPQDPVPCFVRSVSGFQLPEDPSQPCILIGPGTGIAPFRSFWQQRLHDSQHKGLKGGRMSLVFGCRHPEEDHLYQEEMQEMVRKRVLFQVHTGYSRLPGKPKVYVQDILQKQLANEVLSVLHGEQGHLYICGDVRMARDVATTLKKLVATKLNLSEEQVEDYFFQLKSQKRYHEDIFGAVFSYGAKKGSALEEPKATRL

Sequence of Matrix metalloproteinase-9 (Homo sapiens) (P14780 whole entry): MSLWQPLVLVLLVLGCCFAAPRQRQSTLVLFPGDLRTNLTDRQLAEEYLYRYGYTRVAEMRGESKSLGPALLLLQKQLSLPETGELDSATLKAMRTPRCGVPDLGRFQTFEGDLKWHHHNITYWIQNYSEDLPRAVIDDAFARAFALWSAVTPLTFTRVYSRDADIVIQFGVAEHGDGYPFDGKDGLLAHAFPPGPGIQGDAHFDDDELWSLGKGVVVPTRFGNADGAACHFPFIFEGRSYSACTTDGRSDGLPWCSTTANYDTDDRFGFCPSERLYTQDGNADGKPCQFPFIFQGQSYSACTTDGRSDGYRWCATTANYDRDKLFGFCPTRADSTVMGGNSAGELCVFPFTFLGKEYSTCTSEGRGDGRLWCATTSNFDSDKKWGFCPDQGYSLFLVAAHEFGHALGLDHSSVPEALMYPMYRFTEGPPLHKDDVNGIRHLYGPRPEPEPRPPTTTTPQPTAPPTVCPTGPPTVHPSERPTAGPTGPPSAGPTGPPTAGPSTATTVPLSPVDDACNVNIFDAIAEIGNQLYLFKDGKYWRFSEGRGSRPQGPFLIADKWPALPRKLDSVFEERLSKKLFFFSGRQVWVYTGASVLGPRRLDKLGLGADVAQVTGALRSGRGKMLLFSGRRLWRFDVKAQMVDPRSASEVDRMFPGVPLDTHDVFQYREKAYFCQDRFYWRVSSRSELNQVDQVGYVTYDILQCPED
Sequence of Neutrophil collagenase (Homo sapiens) (P22894 101-467 limits assumed): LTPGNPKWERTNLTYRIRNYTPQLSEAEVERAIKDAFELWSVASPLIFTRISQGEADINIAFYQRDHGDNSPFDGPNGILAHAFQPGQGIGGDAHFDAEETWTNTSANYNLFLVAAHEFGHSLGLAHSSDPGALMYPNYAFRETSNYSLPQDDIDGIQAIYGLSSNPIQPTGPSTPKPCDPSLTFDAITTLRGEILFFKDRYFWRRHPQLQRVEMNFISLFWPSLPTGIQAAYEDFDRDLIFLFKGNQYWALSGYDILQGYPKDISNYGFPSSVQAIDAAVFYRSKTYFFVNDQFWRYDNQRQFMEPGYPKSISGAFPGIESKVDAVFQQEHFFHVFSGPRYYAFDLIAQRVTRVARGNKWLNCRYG

Structure (SMILES)	inhibition [1] [%]	inhibition [2] [%]	inhibition [3] [%]	inhibition [4] [%]	inhibition [5] [%]	inhibition [6] [%]
Nc1ccc(C(=O)O)c(O)c1	55	30	-7	8	24	8
O=C(O)c1cccc(C(=O)O)n1	99	83	7	17	-7	20
O=C(O)c1cccc(O)c1O	88	9	17	10	11	2
Cn1cccc(O)c1=O	-6	1	17	13	8	-5
O=c1cccccc1O [TROPOLONE]	90	55	100	100	91	9
Nc1[nH]cnc2ncnc1-2	11	16	17	9	-3	6
O=C(O)c1ccc(F)cc1O	97	17	14	4	5	1
CCCCc1ccc(C(=O)O)nc1	75	29	58	47	18	10
Cc1cc(O)nc(C)n1	-10	18	10	11	1	8
CCn1ccc(=O)c(O)c1C	9	10	19	29	10	-9
O=C(O)c1cc(F)ccc1O	98	16	-7	-1	21	1
Cc1ccc(S(N)(=O)=O)cc1	70	6	11	9	-7	-5
[O-][n+]1cccc2cccc(O)c21	29	59	70	64	67	28
Cc1cc(=O)c(O)c(CCl)o1	96	21	53	47	41	6
Cc1occ(O)c(=O)c1C(=O)O	96	45	60	55	51	17
Nc1cc(=O)nc(N)[nH]1	18	34	3	4	2	7
c1ccc(CNCc2ccccn2)nc1	69	41	73	100	84	-2
Cc1cc(=O)c(O)co1	86	22	37	31	31	-3
Cc1nc(O)nc(O)c1C	32	28	11	2	-4	46
CC(=O)C(C)C(C)=O	67	-7	10	3	-4	7
Oc1ncccn1	92	28	100	100	51	6
O=c1cc(CCl)occ1O	94	30	67	59	42	63
Cc1cc(O)nc(O)n1	-4	8	13	11	1	8
C1CNCCNCCN1	68	59	105	104	100	0
Cc1ccc(O)c(C(=O)O)c1	98	56	28	26	2	21
O=C(O)c1nccc2ccccc12	72	31	32	13	26	13
O=C(O)c1ccc(C(=O)O)nc1	98	18	0	-1	-2	-4
O=C(O)c1ccccc1O	97	6	-1	14	12	13
